According to PubChem BioAssay AID1259407 (Chemical Carcinogenesis Research Information System (CCRIS), 2018):
Active and inactive are the calls of the source. No rule for the calls is given here.

Tested on: CCRIS mutagenicity, Ames/micronucleus/aberration tests
Test: CCRIS mutagenicity studies
[1] = Test System: AMES SALMONELLA TYPHIMURIUM, Strain/Indicator: TA98, Metabolic Activation: NONE, Method: PREINCUBATION
[2] = Test System: AMES SALMONELLA TYPHIMURIUM, Strain/Indicator: TA100, Metabolic Activation: RAT, LIVER, S-9, AROCLOR 1254, Method: PREINCUBATION
[3] = Test System: AMES SALMONELLA TYPHIMURIUM, Strain/Indicator: TA100, Metabolic Activation: NONE, Method: PREINCUBATION
[4] = Test System: AMES SALMONELLA TYPHIMURIUM, Strain/Indicator: TA1535, Metabolic Activation: NONE, Method: PREINCUBATION
[5] = Test System: AMES SALMONELLA TYPHIMURIUM, Strain/Indicator: TA100, Metabolic Activation: RAT, LIVER, S-9, AROCLOR 1254, Method: STANDARD PLATE

`CCC(=O)N(O)c1ccc(-c2ccccc2)cc1` was tested, and the mutagenic call [1] was “inactive; negative”, the mutagenic call (Test System: AMES SALMONELLA TYPHIMURIUM, Strain/Indicator: TA98, Metabolic Activation: RAT, LIVER, CYTOSOL, Method: PREINCUBATION) was “inactive; negative” and the mutagenic call (Test System: AMES SALMONELLA TYPHIMURIUM, Strain/Indicator: TA98, Metabolic Activation: RAT, LIVER, MICROSOMES, Method: PREINCUBATION) was “active; positive”.

`Fc1cccc2cccnc12` was tested, and the mutagenic call (End Point: In vitro chromosomal aberrations, Test System: Chinese hamster lung fibroblast cells (CHL/IU), Metabolic Activation: Rat, Liver, S-9) was “active; positive, described as marginally clastogenic at nontoxic doses. (information de”, the mutagenic call (End Point: In vitro micronucleus, Test System: Chinese hamster lung fibroblast cells (CHL/IU), Metabolic Activation: Rat, Liver, S-9) was “inactive; negative, cytotoxic at 0.2 mg/ml. (information derived from a figure)” and the mutagenic call (Test System: AMES SALMONELLA TYPHIMURIUM, Strain/Indicator: TA100, Metabolic Activation: RAT LIVER S-9, PHENOBARBITAL AND 5,6-BENZOFLAVONE, Method: PREINCUBATION) was “active; positive”. For the same molecule, the mutagenic call [2] was “active; positive”, the mutagenic call (Test System: AMES SALMONELLA TYPHIMURIUM, Strain/Indicator: TA100, Metabolic Activation: RAT, LIVER, S-9, PHENOBARBITAL AND 5,6-BENZOFLAVONE, Method: PREINCUBATION) was “active; positive” and the mutagenic call (Test System: AMES SALMONELLA TYPHIMURIUM, Strain/Indicator: TA100, Metabolic Activation: RAT, LIVER, S-9, PHENOBARBITAL AND 5,6-NAPHTHOFLAVONE, Method: PREINCUBATION) was “active; positive”. For the same molecule, the mutagenic call (Test System: AMES SALMONELLA TYPHIMURIUM, Strain/Indicator: TA100, Metabolic Activation: S-9, Method: PREINCUBATION) was “active; positive” and the mutagenic call (Test System: UDS RODENT HEPATOCYTES, Strain/Indicator: THY INCORP (NON-S-PHASE), Metabolic Activation: NONE, Method: AUTORADIOGRAPHY) was “active; positive”.

`CC(=O)c1cc(N)ccc1OCC(O)CNC(C)(C)C` (centres undefined) was tested, and the mutagenic call [1] was “inactive; negative”, the mutagenic call (Test System: AMES SALMONELLA TYPHIMURIUM, Strain/Indicator: TA98, Metabolic Activation: RAT, LIVER, S-9, PHENOBARBITAL AND 5,6-BENZOFLAVONE (10 OR 50 µL/PLATE), Method: PREINCUBATION) was “inactive; negative” and the mutagenic call [3] was “inactive; negative”. The mutagenic call (Test System: AMES SALMONELLA TYPHIMURIUM, Strain/Indicator: TA100, Metabolic Activation: RAT, LIVER, S-9, PHENOBARBITAL AND 5,6-BENZOFLAVONE (10 OR 50 µL/PLATE), Method: PREINCUBATION) was “inactive; negative”, the mutagenic call [4] was “inactive; negative” and the mutagenic call (Test System: AMES SALMONELLA TYPHIMURIUM, Strain/Indicator: TA1535, Metabolic Activation: RAT, LIVER, S-9, PHENOBARBITAL AND 5,6-BENZOFLAVONE (10 OR 50 µL/PLATE), Method: PREINCUBATION) was “inactive; negative”. The mutagenic call (Test System: AMES SALMONELLA TYPHIMURIUM, Strain/Indicator: TA1537, Metabolic Activation: NONE, Method: PREINCUBATION) was “inactive; negative”, the mutagenic call (Test System: AMES SALMONELLA TYPHIMURIUM, Strain/Indicator: TA1537, Metabolic Activation: RAT, LIVER, S-9, PHENOBARBITAL AND 5,6-BENZOFLAVONE (10 OR 50 µL/PLATE), Method: PREINCUBATION) was “inactive; negative” and the mutagenic call (Test System: E. COLI, Strain/Indicator: WP2 UVRA, Metabolic Activation: NONE, Method: PREINCUBATION) was “inactive; negative”. The mutagenic call (Test System: E. COLI, Strain/Indicator: WP2 UVRA, Metabolic Activation: RAT, LIVER, S-9, PHENOBARBITAL AND 5,6-BENZOFLAVONE, Method: PREINCUBATION) was “inactive; negative”.

`CCN(CC)C(=S)SSC[C@H](NC(=O)CC[C@H](N)C(=O)O)C(=O)NCC(=O)O` was tested, and the mutagenic call [1] was “inactive; negative”, the mutagenic call (Test System: AMES SALMONELLA TYPHIMURIUM, Strain/Indicator: TA98, Metabolic Activation: RAT, LIVER, S-9, AROCLOR 1254, Method: PREINCUBATION) was “inactive; negative” and the mutagenic call [3] was “inactive; negative”. The mutagenic call [2] was “inactive; negative”.

With `CN(C)c1nc(N(C)C)nc(N(C)C)n1` the mutagenic call [3] was “inactive; negative”, the mutagenic call (Test System: AMES SALMONELLA TYPHIMURIUM, Strain/Indicator: TA100, Metabolic Activation: RAT, LIVER, S-9, AROCLOR 1254 (4 OR 10%), Method: PREINCUBATION) was “inactive; negative” and the mutagenic call (Test System: AMES SALMONELLA TYPHIMURIUM, Strain/Indicator: TA100, Metabolic Activation: RAT, LIVER, S-9, AROCLOR 1254 (10%), Method: STANDARD PLATE) was “inactive; negative”. The mutagenic call (Test System: AMES SALMONELLA TYPHIMURIUM, Strain/Indicator: TA100, Metabolic Activation: RAT, LIVER, S-9, AROCLOR 1254 (30%), Method: PREINCUBATION) was “active; positive”.

For `O=c1c(=O)c2cc3ccccc3c3ccc4cccc1c4c23`, the mutagenic call [5] was “active; positive”.

In the case of `COc1ccccc1/C=C/C=O`, the mutagenic call (Test System: AMES SALMONELLA TYPHIMURIUM, Strain/Indicator: TA98, Metabolic Activation: HAMSTER, LIVER, S-9, AROCLOR 1254 (2.5-20%), Method: PREINCUBATION) is reported as “inactive; negative”, the mutagenic call (Test System: AMES SALMONELLA TYPHIMURIUM, Strain/Indicator: TA98, Metabolic Activation: HAMSTER, LIVER, S-9, AROCLOR 1254, Method: STANDARD PLATE) is reported as “inactive; negative” and the mutagenic call (Test System: AMES SALMONELLA TYPHIMURIUM, Strain/Indicator: TA98, Metabolic Activation: NONE, Method: STANDARD PLATE) is reported as “inactive; negative”. The mutagenic call (Test System: AMES SALMONELLA TYPHIMURIUM, Strain/Indicator: TA98, Metabolic Activation: RAT, LIVER, S-9, AROCLOR 1254, Method: STANDARD PLATE) was “inactive; negative”, the mutagenic call (Test System: AMES SALMONELLA TYPHIMURIUM, Strain/Indicator: TA100, Metabolic Activation: HAMSTER, LIVER, S-9, AROCLOR 1254 (2.5-20%), Method: PREINCUBATION) was “inactive; negative” and the mutagenic call (Test System: AMES SALMONELLA TYPHIMURIUM, Strain/Indicator: TA100, Metabolic Activation: HAMSTER, LIVER, S-9, AROCLOR 1254, Method: STANDARD PLATE) was “inactive; negative”. For the same molecule, the mutagenic call [3] was “inactive; negative”, the mutagenic call (Test System: AMES SALMONELLA TYPHIMURIUM, Strain/Indicator: TA100, Metabolic Activation: NONE, Method: STANDARD PLATE) was “inactive; negative” and the mutagenic call [2] was “inactive; negative”. For the same molecule, the mutagenic call [5] was “inactive; negative”, the mutagenic call (Test System: AMES SALMONELLA TYPHIMURIUM, Strain/Indicator: TA102, Metabolic Activation: HAMSTER, LIVER, S-9, AROCLOR 1254, Method: PREINCUBATION) was “inactive; negative” and the mutagenic call (Test System: AMES SALMONELLA TYPHIMURIUM, Strain/Indicator: TA102, Metabolic Activation: RAT, LIVER, S-9, AROCLOR 1254, Method: PREINCUBATION) was “inactive; negative”. The mutagenic call (Test System: AMES SALMONELLA TYPHIMURIUM, Strain/Indicator: TA1535, Metabolic Activation: HAMSTER, LIVER, S-9, AROCLOR 1254, Method: STANDARD PLATE) was “inactive; negative”, the mutagenic call [4] was “inactive; negative” and the mutagenic call (Test System: AMES SALMONELLA TYPHIMURIUM, Strain/Indicator: TA1535, Metabolic Activation: NONE, Method: STANDARD PLATE) was “inactive; negative”. The mutagenic call (Test System: AMES SALMONELLA TYPHIMURIUM, Strain/Indicator: TA1535, Metabolic Activation: RAT, LIVER, S-9, AROCLOR 1254, Method: STANDARD PLATE) was “inactive; negative”, the mutagenic call (Test System: AMES SALMONELLA TYPHIMURIUM, Strain/Indicator: TA1537, Metabolic Activation: HAMSTER, LIVER, S-9, AROCLOR 1254, Method: STANDARD PLATE) was “inactive; negative” and the mutagenic call (Test System: AMES SALMONELLA TYPHIMURIUM, Strain/Indicator: TA1537, Metabolic Activation: NONE, Method: STANDARD PLATE) was “inactive; negative”. The mutagenic call (Test System: AMES SALMONELLA TYPHIMURIUM, Strain/Indicator: TA1537, Metabolic Activation: RAT, LIVER, S-9, AROCLOR 1254, Method: STANDARD PLATE) was “inactive; negative”, the mutagenic call (Test System: AMES SALMONELLA TYPHIMURIUM, Strain/Indicator: TA1538, Metabolic Activation: HAMSTER, LIVER, S-9, AROCLOR 1254, Method: STANDARD PLATE) was “inactive; negative” and the mutagenic call (Test System: AMES SALMONELLA TYPHIMURIUM, Strain/Indicator: TA1538, Metabolic Activation: NONE, Method: STANDARD PLATE) was “inactive; negative”. The mutagenic call (Test System: AMES SALMONELLA TYPHIMURIUM, Strain/Indicator: TA1538, Metabolic Activation: RAT, LIVER, S-9, AROCLOR 1254, Method: STANDARD PLATE) was “inactive; negative”, the mutagenic call (Test System: Mouse lymphoma, Strain/Indicator: L5178Y (tk+/tk-), Metabolic Activation: None, Method: Suspension/plate) was “active; inconclusive (previous evaluation positive)” and the mutagenic call (Test System: Mouse lymphoma, Strain/Indicator: L5178Y (tk+/tk-), Metabolic Activation: Rat, Liver, S-9, Aroclor 1254, Method: Suspension/plate) was “active; inconclusive (previous evaluation positive)”.
